Results taken from patent US20040092552A1, “2-Fluorobenzenesulfonyl compounds for the treatment of inflammation” (priority 2003, published 2004).
Counter-ions that a name gives are not always drawn.

`Cc1ccc(-c2cc(C(F)(F)F)nn2-c2ccc(S(N)(=O)=O)c(F)c2)cc1` (as salt: trifluoroacetate) [Example 4, 4-[5-(4-Methylphenyl)-3-(trifluoromethyl)-1H-pyrazol-1-yl]-2-fluorobenzenesulfonamide] showed a melting point of 126 to 128 °C. In the case of `NS(=O)(=O)c1ccc(-n2nc(C(F)(F)F)cc2-c2ccc(Cl)cc2)cc1F` (as salt: trifluoroacetate) [Example 5, 4-[5-(4-Chlorophenyl)-3-trifluoromethyl-1H-pyrazol-1-yl]-2-fluorobenizenesulfonamide], the melting point is reported as 140 to 141 °C. In the case of `COc1ccc(-c2cc(C(F)(F)F)nn2-c2ccc(S(N)(=O)=O)c(F)c2)cc1F` (as salt: trifluoroacetate) [Example 6, 4-[5-(3-Fluoro-4-methoxy)-3-trifluoromethyl-1H-pyrazol-1-yl]-2 fluorobenzenesulfonamide], the melting point is reported as 124 to 126 °C. With `NS(=O)(=O)c1ccc(-n2nc(C(F)(F)F)cc2-c2ccc(F)cc2)cc1F` (as salt: trifluoroacetate) [Example 8, 2-Fluoro-4-[5-(4-fluorophenyl)-3-(trifluoromethyl)-1H-pyrazol-1-yl]benzenesulfonamide] the melting point was 127 to 130 °C. In the case of `COc1ccccc1-c1cc(C(F)(F)F)nn1-c1ccc(S(N)(=O)=O)c(F)c1` (as salt: trifluoroacetate) [Example 9, 2-Fluoro-4-[5-(2-methoxyphenyl)-3-(trifluoromethyl)-1H-pyrazol-1-yl]benzenesulfonamide], the melting point is reported as 159 to 160 °C. With `CS(=O)(=O)c1ccc(-c2cc(C(F)F)nn2-c2ccc(F)cc2)cc1F` (as salt: trifluoroacetate) [Example 18, 3-(Difluoromethyl)-5-[3-fluoro-4-(methylsulfonyl)phenyl]-1-(4-fluorophenyl)-1H-pyrazole] the melting point was 201 to 202 °C. `CS(=O)(=O)c1ccc(-c2cc(C(F)F)nn2C2CCCCC2)cc1F` (as salt: trifluoroacetate) [Example 19, 1-Cyclohexyl-3-(difluoromethyl)-5-[3-fluoro-4-(methylsulfonyl)phenyl]-1H-pyrazole] showed a melting point of 138 to 139 °C. For `Cc1ccc(-n2nc(C(F)F)cc2-c2ccc(S(C)(=O)=O)c(F)c2)cc1Cl` (as salt: trifluoroacetate) [Example 20, 1-(3-Chloro-4-methylphenyl)-3-(difluoromethyl)-5-[3-fluoro-4-(methylsulfonyl)phenyl]-1H-pyrazole], the melting point was 146 to 147 °C. `CS(=O)(=O)c1ccc(-c2cc(C(F)F)nn2-c2cccc(C(F)(F)F)c2)cc1F` (as salt: trifluoroacetate) [Example 21, 3-(Difluoromethyl)-5-[3-fluoro-4-(methylsulfonyl)-phenyl]-1-[3-(trifluoromethyl)-phenyl]-1H-pyrazole] showed a melting point of 110 to 111 °C. Molecule `NS(=O)(=O)c1ccc(-c2cscc2-c2ccccc2)cc1F` [Example 1, 2-Fluoro-4-(4-phenyl-3-thienyl)benzenesulfonamide] has a melting point of 170.9 to 171 °C. In the case of `CS(=O)(=O)c1ccc(-c2cscc2-c2ccccc2)cc1F` [Example 2, 3-[3-Fluoro-4-(methylsulfonyl)phenyl]-4-phenylthiophene], the melting point is reported as 140 to 141 °C. With `Cc1ccc(-c2cc(C(F)F)nn2-c2ccc(S(N)(=O)=O)c(F)c2)cc1Cl` [Example 3, 4-[5-(3-chloro-4-methylphenyl)-3-(difluoromethyl)-1H-pyrazol-1-yl]-2-fluorobenzenesulfonamide] the melting point was 160 to 161 °C. With `COc1ccc(-c2cc(C(F)F)nn2-c2ccc(S(N)(=O)=O)c(F)c2)cc1F` [Example 10, 4-[3-(Difluoromethyl)-5-(3-fluoro-4-methoxyphenyl)-1H-pyrazol-1-yl]-2-fluorobenzenesulfonamide] the melting point was 167 to 169 °C. `CS(=O)(=O)c1ccc(-c2cc(C(F)(F)F)nn2-c2ccc(F)cc2)cc1F` [Example 11, 5-[3-Fluoro-4-(methylsulfonyl)phenyl]-1-(4-fluorophenyl)-3-(trifluoromethyl)-1H-pyrazole] gave a melting point of 228 to 229 °C. Work on `CS(=O)(=O)c1ccc(-c2cc(C(F)(F)F)nn2C2CCCCC2)cc1F` [Example 12, 1-Cyclohexyl-5-[3-fluoro-4-(methylsulfonyl)phenyl]-3-(trifluoromethyl)-1H-pyrazole] yielded a melting point of 228 to 229 °C. `CS(=O)(=O)c1ccc(-c2cc(C(F)(F)F)nn2-c2ccc(OC(F)(F)F)cc2)cc1F` [Example 14, 5-[3-Fluoro-4-(methylsulfonyl)phenyl]-3-(trifluoromethyl)-1-[4-(trifluoromethoxy)phenyl]-1H-pyrazole] showed a melting point of 110 to 112 °C. With `Cc1ccc(-n2nc(C(F)(F)F)cc2-c2ccc(S(C)(=O)=O)c(F)c2)cc1Cl` [Example 15, 1-(3-Chloro-4-methylphenyl)-5-[3-fluoro-4-(methylsulfonyl)phenyl]-3-(trifluoromethyl)-1H-pyrazole] the melting point was 144 to 145 °C. Molecule `CS(=O)(=O)c1ccc(-c2cc(C(F)(F)F)nn2-c2ccc(C#N)cc2)cc1F` [Example 16, 4-[5-[3-Fluoro-4-(methylsulfonyl)phenyl]-3-(trifluoromethyl)-1H-pyrazol-1-yl]benzonitrile] has a melting point of 152 to 153 °C. In the case of `Cc1cccc(-n2nc(C(F)(F)F)cc2-c2ccc(S(C)(=O)=O)c(F)c2)c1` [Example 17, 5-[3-Fluoro-4-(methylsulfonyl)phenyl]-1-(3-methylphenyl)-3-(trifluoromethyl)-1H-pyrazole], the melting point is reported as 129 to 130 °C. In the case of `Cc1onc(-c2ccc(F)cc2)c1-c1ccc(S(N)(=O)=O)c(F)c1` [Example 22, 2-Fluoro-4-[3-(4-fluorophenyl)-5-methyl-4-isoxazolyl]benzenesulfonamide], the melting point is reported as 176 to 177 °C. For `CS(=O)(=O)c1ccc(C2=C(c3ccccc3)C(=O)OC2)cc1F` [Example 24, 4-[3-Fluoro-4-(methylsulfonyl)phenyl]-3-phenyl-2(5H)-furanone], the melting point was 161 to 162 °C.
